Data as given in ChEMBL document CHEMBL3045506, “Spore Germination Self-Inhibitors from Plant Pathogenic Fungi” (1997).
Converted amounts (≈) assume the structure as drawn.

Columns and labels:
Type in all cases: functional
Puccinia coronata = assay: Antifungal activity against Puccinia coronata assessed as inhibition of uredospore germination after 48 hr by microscope-slide assay
[1] = system: Puccinia graminis f. sp. tritici; assay: Antifungal activity against Puccinia graminis f. sp. tritici assessed as inhibition of uredospore germination after 48 hr by microscope-slide assay
[2] = system: Colletotrichum gloeosporioides; assay: Antifungal activity against Colletotrichum gloeosporioides f. sp. jussiaea assessed as conidial germination at 100 ppm after 48 hr by microscopic analysis
[3] = system: Colletotrichum gloeosporioides; assay: Antifungal activity against Colletotrichum gloeosporioides f. sp. jussiaea assessed as conidial germination at 30 ppm after 48 hr by microscopic analysis
[4] = system: Colletotrichum gloeosporioides; assay: Antifungal activity against Colletotrichum gloeosporioides f. sp. jussiaea assessed as conidial germination at 10 ppm after 48 hr by microscopic analysis
[5] = system: Colletotrichum gloeosporioides; assay: Antifungal activity against Colletotrichum gloeosporioides f. sp. jussiaea assessed as conidial germination at 3 ppm after 48 hr by microscopic analysis

Structure (SMILES)	ED50 (Puccinia coronata) [ng/mL]	ED50 [1] [ng/mL]	Activity [2] [%]	Activity [3] [%]	Activity [4] [%]	Activity [5] [%]
COC(=O)C(=Cc1ccc(O)c(OC)c1)C(=O)OC	6.8 (≈ 25.5 nM)	0.27 (≈ 1.01 nM)	–	–	–	–
C/C=C1/C(=O)Nc2ccccc21	–	–	0	0	0	40
C/C=C1\C(=O)Nc2ccccc21	–	–	0	0	0	68
CCCCC[C@H]1CCCCC[C@H]2CC(=O)[C@@H](CCC(=O)O1)O2.NN [7-EPIGLOEOSPORONE]	–	–	45	82	–	–
CCCCC[C@@H]1CCCCC[C@@H]2CC(=O)[C@H](CCC(=O)O1)O2.NN [13-EPIGLOEOSPORONE]	–	–	48	81	–	–
CCCCC[C@H]1CCCCC[C@H]2CC(=O)[C@@H](CCC(=O)O1)O2 [(+)-GLOEOSPORONE]	–	–	44	81	–	–
CCCCC[C@@H]1CCCCC[C@@H]2CC(=O)[C@H](CCC(=O)O1)O2 [(-)-GLOEOSPORONE]	–	–	49	82	–	–
COC(=O)C(=Cc1ccc(OC)c(OC)c1)C(=O)OC [METHYL 3,4-DIMETHOXYBENZALMALONATE]	0.025 (≈ 0.0892 nM)	4.16 (≈ 14.8 nM)	–	–	–	–
COC(=O)/C=C\c1ccc(OC)c(OC)c1 [METHYL CIS-3,4-DIMETHOXYCINNAMATE]	0.013 (≈ 0.0585 nM)	3.68 (≈ 16.6 nM)	–	–	–	–
COC(=O)/C=C\c1ccc(O)c(OC)c1 [METHYL CIS-FERULATE]	5.57 (≈ 26.8 nM)	0.18 (≈ 0.864 nM)	–	–	–	–
